According to article PMC12696353, “Structural insights into endogenous agonist selectivity of aminergic receptors from the octopamine β2 receptor” (PNAS Nexus, 2025):
Positions count from the first letter of the chain named. “Also recorded” adds a separate entry of the source.

Experiments:
[1] = molecular target: T1, is-octβ2R T60^1.41P mutant (Ixodes scapularis, UniProt A0ACM8E5E8); test: TGFα shedding assay, amitraz-resistant mutant T60^1.41P; format: cell-based; details: Table S4
T1 sequence (A0ACM8E5E8 1-384 T39P): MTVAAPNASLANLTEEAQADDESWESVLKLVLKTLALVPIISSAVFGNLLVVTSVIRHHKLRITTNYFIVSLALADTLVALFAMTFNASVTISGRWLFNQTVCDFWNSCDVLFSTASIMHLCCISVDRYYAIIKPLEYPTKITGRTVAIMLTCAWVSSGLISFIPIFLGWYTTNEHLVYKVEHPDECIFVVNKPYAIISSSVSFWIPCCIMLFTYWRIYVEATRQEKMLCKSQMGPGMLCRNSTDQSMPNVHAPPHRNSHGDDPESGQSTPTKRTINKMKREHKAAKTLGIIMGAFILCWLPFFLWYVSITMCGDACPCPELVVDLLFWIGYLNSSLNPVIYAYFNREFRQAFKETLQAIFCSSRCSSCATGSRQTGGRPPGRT
Protocol: (§1) The TGFα shedding assay was performed as previously described ([28]). […] The cells were transfected using lipofectamine 2000 with plasmids encoding alkaline phosphatase–tagged TGFα (AP-TGFα) (2.5 ng/mL), is-octβ2Rs (1 ng/mL), and Gαq/s (0.5 ng/mL). After 24 h, the cells were washed with phosphate-buffered saline and resuspended in Hank's balanced salt solution (HBSS) (supplemented with 5 mM HEPES [pH 7.4]). The cells (90 μL/well) were plated in a 96-well plate and incubated with 10 μL of HBSS solution containing various concentrations of compounds for 1 h at 37 °C. Following centrifugation (200 × g, 2 min), 80 μL of the supernatant was transferred to a separate 96-well plate. Subsequently, 80 µL of 2× para-nitrophenyl phosphate (pNPP) buffer (containing 10 mM pNPP in 40 mM Tris–HCl [pH 9.5], 40 mM NaCl, and 10 mM MgCl2) was added to both the supernatant and cell-containing plates. The optical density at 405 nm of both plates was measured before and after a 1 h incubation at room temperature using a microplate reader (SpectraMax iD3, Molecular Devices, San Jose, CA, United States). AP-TGFα release was calculated using the following formulas:
(§2) ΔOD405=OD450(1h)−OD405(0h)AP−TGFαinsupernatant(%)=(ΔOD405Sup/[ΔOD450Sup+ΔOD405Cell])×125AP−TGFαrelease(%)=AP−TGFαinsupernatantunderastimulatedcondition(%)−AP−TGFαinsupernatantunderavehicle−treatedcondition
(§3) where OD405 (0 h) and […] represent the OD405 before and after a 1 h incubation, respectively, and OD405Sup and OD405Cell represent the OD405 of supernatant and cell plates, respectively. For all pharmacological analyses, nonlinear regression curve fitting was performed with a 3-parameter sigmoid model (Hill coefficient = 1) using Prism 8 (GraphPad Software, La Jolla, CA, United States).

[2] = molecular target: T2, is-octβ2R Y67^2.41S mutant (Ixodes scapularis, UniProt A0ACM8E5E8, Y67S); test: TGFα shedding assay, amitraz-resistant mutant Y67^2.41S; format: cell-based; details: Table S4
T2 sequence (A0ACM8E5E8 1-384 Y67S): T1 sequence (A0ACM8E5E8 1-384 T39P) with P39T, Y67S
Protocol: as §1, §2, §3

[3] = molecular target: T3, is-octβ2R N87^2.61S mutant (Ixodes scapularis, UniProt A0ACM8E5E8, N87S); test: TGFα shedding assay, amitraz-resistant mutant N87^2.61S; format: cell-based; details: Table S4
T3 sequence (A0ACM8E5E8 1-384 N87S): T1 sequence (A0ACM8E5E8 1-384 T39P) with P39T, N87S
Protocol: as §1, §2, §3

[4] = molecular target: T4, is-octβ2R Y215^5.58H mutant (Ixodes scapularis, UniProt A0ACM8E5E8, Y215H); test: TGFα shedding assay, amitraz-resistant mutant Y215^5.58H; format: cell-based
T4 sequence (A0ACM8E5E8 1-384 Y215H): T1 sequence (A0ACM8E5E8 1-384 T39P) with P39T, Y215H
Protocol: as §1, §2, §3

[5] = system: is-octβ2R Y215^5.58H mutant; test: as above; format: cell-based, Ixodes scapularis; details: versus wild type
Protocol: as §1, §2, §3

[6] = system: is-octβ2R S199^5.42A mutant; test: TGFα shedding assay, mutant S199^5.42A; format: cell-based, Ixodes scapularis
Protocol: as §1, §2, §3

[7] = system: is-octβ2R W300^6.48A mutant; test: TGFα shedding assay, mutant W300^6.48A; format: cell-based, Ixodes scapularis; details: Table S6
Protocol: as §1
(§4) ΔOD405=OD450(1h)−OD405(0h)AP−TGFαinsupernatant(%)=(ΔOD405Sup/[ΔOD450Sup+ΔOD405Cell])×125AP−TGFαrelease(%)=AP−TGFαinsupernatantunderastimulatedcondition(%)−AP−TGFαinsupernatantunderavehicle−treatedcondition […]

[8] = molecular target: is-octβ2R F304^6.52A mutant (Ixodes scapularis, UniProt A0ACM8E5E8, F304A); test: TGFα shedding assay, mutant F304^6.52A; format: cell-based; details: Table S6
Protocol: as §1, §4

[9] = system: is-octβ2R Y307^6.55A mutant; test: TGFα shedding assay, mutant Y307^6.55A; format: cell-based, Ixodes scapularis; details: Table S6
Protocol: as §1, §4

`CN/C=N/c1ccc(C)cc1C` [DPMF, N-2,4-dimethylphenyl-N′-methylformamidine] was tested, and the EC50 [1] was 7.94 nM, the EC50 [2] was 6.31 nM and the EC50 [3] was 7.94 nM. For the same compound, the EC50 [4] was 6.31 nM, the “change of EC50 by the Y215^5.58H mutation” value [5] was “unaffected” and the “reduction of maximal response (Emax) by the Y215^5.58H mutation” value [5] was roughly 50%. For the same compound, the logEC50 ([6]; Table S6) was “signal observed only at 10-5 M; also recorded: signal observed only at 10^−5 M”, the logEC50 [7] was “no activity” and the EC50 [8] was 63.1 nM. The logEC50 [9] was “no activity”.
`NCC(O)c1ccc(O)cc1` (stereo not drawn) [Octopamine, octopamine] was tested, and the EC50 [1] was 10 nM, the EC50 [2] was 12.6 nM and the EC50 [3] was 10 nM. For the same compound, the EC50 [4] was 15.8 nM, the “change of EC50 by the Y215^5.58H mutation” value [5] was 4 fold and the “reduction of maximal response (Emax) by the Y215^5.58H mutation” value [5] was roughly 50%. For the same compound, the logEC50 ([6]; Table S6) was “signal observed only at 10-5 M”, the logEC50 ([6]; Table S6, listed as octopamine) was “signal observed only at 10^−5 M” and the logEC50 [7] was “no activity”. The EC50 [8] was 398 nM and the logEC50 [9] was “no activity”.
